Experiments:
[1] = unencapsulated, free chelate; cited from earlier work
[2] = NMR relaxometry of GdDTPA-BMA containing liposomes in vitro (inversion recovery T1); format: physicochemical; conditions: GdDTPA-BMA in solution of solubilized liposome (0.1% C12E8), 1 mM Gd
Protocol: NMR relaxometry and magnetic resonance (MR) imaging were performed using a 2.0 Tesla small bore magnet (Bruker Omega 2.0T System, Bruker Instruments, Inc., Fremont, Calif.) equipped with actively shielded gradients (Accustar™ S-150, Bruker Instruments, Inc., Fremont, Calif.) capable of delivering field gradients up to 20 G/cm along each axis (X, Y and Z).
T1 relaxation rates of various liposome suspensions with a mean diameter of 110 nm were determined by standard inversion recovery measurment. The content of GdDTPA-BMA in liposome suspensions was estimated from NMR relaxometry. An inversion recovery NMR spectroscopy pulse sequence was performed in which a nonselective composite inversion pulse (90x-180y-90x) was applied, followed by a gradient spoiler pulse to eliminate residual coherent in-plane magnetization. After a variable delay time (TI), z-magnetization was sampled by a nonselective 90° radiofrequency pulse and the signal was recorded. The inversion recovery signal profile was obtained from at least forty such measurements in which the TI delay was incremented from 20 ms to a value that was at least 3-fold greater than the T1.
Mz(TI)/M∞=1−k exp(TI/T1) Eq. 1,
in which Mz(TI) is the signal intensity measured at a particular value of TI, M∞ is the fully relaxed signal intensity, and k has the value of 2.0 if the inversion pulse is exactly 180°. […]

Relaxivity=ΔR1/[Gd] [2] | Compound | biologic half-life [1]
 | O=C([O-])CN(CCN(CC(=O)[O-])CC(=O)O)CCN(CC(=O)[O-])CC(=O)O.[Gd+3] [Gd-DTPA, gadolinium-diethylene triamine pentaacetic acid] | approximately 30 min
4.07 s⁻¹ mM⁻¹ | CNC(=O)CN(CCN(CCN(CC(=O)[O-])CC(=O)NC)CC(=O)[O-])CC(=O)[O-].[Gd+3] [Gd-DTPA-BMA, Gadolinium-diethylene-triamine-pentaacetic-acid-bis-methylamide] | approximately 30 min

— patent US6468505B1, “Technique to monitor drug delivery noninvasively in vivo” (Philipp Lang, priority 1997, dated 2002)
